pKi: −log10 of the molar value.
Key:
[1] = molecular target: T1, Sodium-dependent dopamine transporter (Homo sapiens, UniProt Q01959); experiment: Percentage displacement of [3H]WIN-35428 radioligand from dopamine transporter at concentration of 1000 nM
[2] = molecular target: T2, Sodium-dependent serotonin transporter (Homo sapiens, UniProt P31645); experiment: Percentage displacement of [3H]citalopram radioligand from serotonin transporter at concentration of 100 nM
Target sequence in this assay (P31645 whole entry, looked up): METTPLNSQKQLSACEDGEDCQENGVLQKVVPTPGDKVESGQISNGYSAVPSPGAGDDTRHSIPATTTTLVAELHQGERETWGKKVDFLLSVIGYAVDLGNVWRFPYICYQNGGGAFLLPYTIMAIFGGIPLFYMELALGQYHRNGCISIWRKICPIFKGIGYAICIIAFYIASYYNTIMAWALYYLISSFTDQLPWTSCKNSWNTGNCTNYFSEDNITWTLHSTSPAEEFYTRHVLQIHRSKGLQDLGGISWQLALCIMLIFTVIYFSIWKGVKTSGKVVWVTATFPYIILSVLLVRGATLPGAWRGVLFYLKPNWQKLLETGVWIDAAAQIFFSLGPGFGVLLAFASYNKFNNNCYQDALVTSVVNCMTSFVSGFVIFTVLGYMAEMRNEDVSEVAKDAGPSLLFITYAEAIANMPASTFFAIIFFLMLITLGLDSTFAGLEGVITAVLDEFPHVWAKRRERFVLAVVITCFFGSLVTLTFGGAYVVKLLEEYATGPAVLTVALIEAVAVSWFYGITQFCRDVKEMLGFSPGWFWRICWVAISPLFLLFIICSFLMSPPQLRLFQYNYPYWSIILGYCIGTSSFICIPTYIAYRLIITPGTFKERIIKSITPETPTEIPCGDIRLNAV

[3] = molecular target: T1, Sodium-dependent dopamine transporter; experiment: Inhibition of monoamine reuptake at dopamine transporter
[4] = molecular target: T3, Sodium-dependent noradrenaline transporter (Homo sapiens, UniProt P23975); experiment: Inhibition of monoamine reuptake at norepinephrine transporter
T3 sequence (P23975 whole entry): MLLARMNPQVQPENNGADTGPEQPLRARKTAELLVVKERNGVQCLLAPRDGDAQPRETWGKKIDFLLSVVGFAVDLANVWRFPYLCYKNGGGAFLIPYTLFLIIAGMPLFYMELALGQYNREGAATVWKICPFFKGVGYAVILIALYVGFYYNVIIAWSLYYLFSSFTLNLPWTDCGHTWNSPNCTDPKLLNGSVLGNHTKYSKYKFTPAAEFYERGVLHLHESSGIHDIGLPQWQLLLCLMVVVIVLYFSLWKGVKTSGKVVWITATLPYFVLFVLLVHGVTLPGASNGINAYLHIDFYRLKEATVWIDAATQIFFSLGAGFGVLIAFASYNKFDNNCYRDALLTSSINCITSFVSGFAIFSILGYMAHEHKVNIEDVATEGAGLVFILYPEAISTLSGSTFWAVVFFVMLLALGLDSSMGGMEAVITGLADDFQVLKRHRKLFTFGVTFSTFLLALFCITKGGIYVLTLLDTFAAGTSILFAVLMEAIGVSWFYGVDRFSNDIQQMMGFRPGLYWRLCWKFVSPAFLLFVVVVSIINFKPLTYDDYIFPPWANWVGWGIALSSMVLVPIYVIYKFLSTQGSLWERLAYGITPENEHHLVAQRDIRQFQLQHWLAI

[5] = molecular target: T2, Sodium-dependent serotonin transporter; experiment: Inhibition of monoamine reuptake at serotonin transporter
Target sequence in this assay (P31645 whole entry): as the sequence (P31645 whole entry, looked up) above

[6] = molecular target: T3, Sodium-dependent noradrenaline transporter; experiment: Percentage displacement of [3H]nisoxetine radioligand from norepinephrine transporter at concentration of 1000 nM

T1 sequence (Q01959 whole entry): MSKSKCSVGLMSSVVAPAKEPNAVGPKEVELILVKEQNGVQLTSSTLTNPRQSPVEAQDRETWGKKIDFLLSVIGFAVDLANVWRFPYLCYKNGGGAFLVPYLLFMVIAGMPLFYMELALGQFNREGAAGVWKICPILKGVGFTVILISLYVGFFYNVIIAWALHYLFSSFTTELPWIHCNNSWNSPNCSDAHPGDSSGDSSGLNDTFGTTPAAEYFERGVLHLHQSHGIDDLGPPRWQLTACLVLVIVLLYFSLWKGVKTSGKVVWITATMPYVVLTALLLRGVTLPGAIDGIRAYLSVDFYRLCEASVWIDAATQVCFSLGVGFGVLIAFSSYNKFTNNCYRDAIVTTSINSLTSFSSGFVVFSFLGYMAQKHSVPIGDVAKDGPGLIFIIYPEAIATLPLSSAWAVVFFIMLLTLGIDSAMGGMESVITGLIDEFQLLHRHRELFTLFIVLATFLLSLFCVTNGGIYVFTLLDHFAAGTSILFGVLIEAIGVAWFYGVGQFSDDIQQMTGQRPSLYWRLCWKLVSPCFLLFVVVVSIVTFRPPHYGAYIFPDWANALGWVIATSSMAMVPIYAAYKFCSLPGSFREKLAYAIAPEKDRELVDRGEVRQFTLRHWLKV

Structure (SMILES) | Activity [1] | Activity [2] | pKi [3] | pKi [4] | pKi [5] | Activity [6]
CNCCCC1Cc2ccccc2N(c2ccccc2)C1=O (racemic) [listing 1 of 2 here] | 24% | 0% | – | – | – | –
CNCCCC1(C(C)C)Cc2ccccc2N(c2ccc(C)cc2)C1=O (racemic) | 7% | – | < 6.70 | 6.82 | – | –
CNCCCC1Cc2ccccc2N(c2ccc(Cl)c(Cl)c2)C1=O (racemic) | – | 8% | 7.89 | 7.21 | < 7.00 | –
CNCCC1Cc2ccccc2N(c2ccccc2)C1=O (single isomer, unassigned; isomer 1) [listing 1 of 2 here] | 13% | 1% | – | – | – | –
CNCCCC1Cc2ccccc2N(c2ccc(F)cc2)C1=O (racemic) | 5% | 7% | < 6.70 | 7.04 | < 7.00 | –
CCC1(CCCNC)Cc2ccccc2N(c2ccccc2)C1=O (racemic) | 6% | 12% | < 6.70 | 8.00 | < 7.00 | –
CCc1ccc(N2C(=O)C(CCCNC)Cc3ccccc32)cc1 (racemic) | 9% | 3% | < 6.70 | 6.82 | < 7.00 | –
CCCCC1(CCCNC)Cc2ccccc2N(c2ccc(C)cc2)C1=O (racemic) | 18% | – | < 6.70 | 8.10 | – | –
CNCCCC1Cc2cc(F)ccc2N(c2ccc(C)cc2)C1=O (racemic) | 5% | 45% | < 6.70 | 8.30 | < 7.00 | –
CNCCCC1Cc2ccccc2N(c2ccccc2)C1=O (single isomer, unassigned; isomer 1) [listing 1 of 2 here] | 11% | 5% | – | – | – | –
CNCCCC1(C)Cc2cc(Cl)ccc2N(c2ccc(C)cc2)C1=O (racemic) | – | 15% | – | 7.37 | < 7.00 | –
CNCCCC1Cc2ccccc2N(c2ccc(C(F)(F)F)cc2)C1=O (racemic) | 12% | 1% | < 6.70 | 5.84 | < 7.00 | –
CNCCCC1(C)Cc2ccccc2N(c2ccc(C(C)C)cc2)C1=O (racemic) | 2% | 5% | < 6.70 | < 6.70 | < 7.00 | 18%
CNCCCC1(C)Cc2ccccc2N(c2cc(Cl)cc(Cl)c2)C1=O (racemic) | 41% | 10% | < 6.70 | < 6.70 | < 7.00 | 39%
CNCCC1Cc2ccccc2N(c2ccccc2)C1=O (stereo in doubt) [listing 1 of 2 here] | 9% | 9% | – | – | – | –
CNCCCC1(C)Cc2ccccc2N(c2cccc(C)c2)C1=O (racemic) | 9% | 9% | < 6.70 | 6.84 | < 7.00 | –
CNCCCC1(C)Cc2ccccc2N(c2cc(F)cc(F)c2)C1=O (racemic) | 19% | 9% | < 6.70 | 6.78 | < 7.00 | –
CNCCC1Cc2ccccc2N(c2ccccc2)C1=O (single isomer, unassigned; isomer 1) [listing 2 of 2 here] | – | – | < 6.70 | 7.42 | < 7.00 | –

Structure (SMILES) | Activity [1] | Activity [2] | pKi [3] | pKi [4] | pKi [5] | Activity [6]
CCC1(CCCNC)Cc2cc(Cl)ccc2N(c2ccc(C)cc2)C1=O (racemic) | 3% | – | < 6.70 | 7.33 | 6.89 | –
CCC1(CCCNC)Cc2ccccc2N(c2ccc(C)cc2)C1=O (racemic) | 11% | 11% | < 6.70 | 7.77 | < 7.00 | –
CNCCCC1(C)Cc2ccccc2N(c2ccccc2)C1=O (racemic) | 10% | 9% | < 6.70 | 7.36 | < 7.00 | –
CNCCCC1Cc2ccccc2N(c2ccccc2)C1=O (stereo in doubt) [listing 1 of 2 here] | 5% | 4% | – | – | – | –
CNCCCC1(C)Cc2ccccc2N(c2ccc(F)c(F)c2)C1=O (racemic) | 50% | 11% | < 6.70 | 7.11 | < 7.00 | –
CNCCCC1Cc2ccccc2N(c2ccc(Cl)cc2)C1=O (centres undefined) | 50% | 8% | < 6.70 | 7.68 | < 7.00 | –
CNCCCC1Cc2cc(Cl)ccc2N(c2ccc(C)cc2)C1=O (racemic) | 7% | 15% | < 6.70 | 8.22 | < 7.00 | –
CNCCCC1Cc2ccccc2N(c2ccccc2)C1=O (single isomer, unassigned; isomer 1) [listing 2 of 2 here] | – | – | < 6.70 | 8.10 | < 7.00 | –
CNCCCC1(C)Cc2ccccc2N(c2ccc(C)cc2)C1=O (racemic) | 3% | 12% | < 6.70 | 8.05 | < 7.00 | –
CNCCC1Cc2ccccc2N(c2ccccc2)C1=O (stereo in doubt) [listing 2 of 2 here] | – | – | < 6.70 | 7.27 | < 7.00 | –
CNCCCC1Cc2ccccc2N(c2ccc(C)cc2)C1=O (racemic) | 19% | 15% | < 6.70 | 8.52 | < 7.00 | –
CCCC1(CCCNC)Cc2ccccc2N(c2ccccc2)C1=O (racemic) | 3% | 51% | < 6.70 | 8.15 | < 7.00 | –
CNCCCC1Cc2ccccc2N(c2ccccc2)C1=O (stereo in doubt) [listing 2 of 2 here] | – | – | < 6.70 | 6.72 | < 7.00 | –
CNCCCCC1Cc2ccccc2N(c2ccccc2)C1=O (centres undefined) | 12% | -3% | < 6.70 | < 6.70 | < 7.00 | 53%
CNCCCC1Cc2ccccc2N(c2cccc(Cl)c2)C1=O (racemic) | 64% | 7% | < 6.70 | 7.10 | < 7.00 | –
CCCC1(CCCNC)Cc2ccccc2N(c2ccc(C)cc2)C1=O (racemic) | 9% | – | < 6.70 | 7.96 | 6.80 | –
CNCCCC1Cc2ccccc2N(c2ccccc2)C1=O (racemic) [listing 2 of 2 here] | – | – | < 6.70 | 8.00 | < 7.00 | –
CNCCCC1Cc2ccccc2N(c2cccc(F)c2)C1=O (racemic) | 10% | 9% | < 6.70 | 7.74 | < 7.00 | –
